Measurements reported in patent US20250041286A1, “CANCER TREATMENT USING KETOTIFEN IN COMBINATION WITH A CHECKPOINT INHIBITOR” (Materia Therapeutics Inc., priority 2021, published 2025).
Entries after “also recorded” stand apart in the source; their conditions may differ.

Key:
K7M2wt tumors [1] = test: Hypoxia study, pimonidazole adduct immunofluorescence; type: in vivo, mouse; conditions: 10 mg/kg ketotifen
Description: (§1) Mice bearing orthotopic MCA205 or K7M2wt sarcoma tumors were injected (intraperitoneal) with 60 mg/kg of pimonidazole HCl at 2 hours prior to tumor removal. Tumors were removed, washed twice in 1×PBS for 10 minutes and incubated with 4% PFA overnight at 4° C. The fixative was aspirated, and samples were washed twice in 1×PBS for 10 min. Tissue samples were dehydrated in successive ethanol steps and xylene followed by paraffin embedding. Serial sections ([…]) of paraffin-embedded tissues were produced using the microtome (Accu-Cut SRM 200 Rotary Microtome, SAKURA), flattened out into water, and allowed to dry overnight at 37° C. Sections were then deparaffinized and rehydrated as routinely processed for histology. Slides were microwaved in TriSodium Citrate, blocked in serum solution, and incubated with mouse anti-pimonidazole RED 549 conjugate antibody (HP7-100Kit, 1:100) overnight at 4° C. The next day slides were washed, nuclei were stained with DAPI, and tissue sections were mounted. Immunofluorescence images of the slides were taken (FIG. 1A), and hypoxic area fraction across different treatment groups was normalized to DAPI staining.
Immunofluorescence staining for Ki67 and CD8, performed as described above, confirmed the activation status of recruited CD8^+ T cells in osteosarcoma tumors (K7M2wt tumors) (FIGS. 9C-9D). […]

MCA205 tumors [2] = test: Tumor-opening experiment (residual solid stress); type: in vivo, mouse; conditions: 5 mg/kg and 10 mg/kg ketotifen
Description: Tumor-opening experiments were performed as an indicator of the amount of residual stress contained within the tissue, using the values of opening after cutting.

MCA205 tumors [3] = test: Hypoxia study, pimonidazole adduct immunofluorescence; type: in vivo, mouse
Description: as §1

MCA205 cells = test: Re-challenge of long-term survivors with MCA205 cells; type: in vivo, mouse; conditions: re-challenge with 2.5×10^5 MCA205 cells s.c., 80 days after resection of primary tumors
From the text: Since doxorubicin has potential to establish favorable immunogenic conditions within the TME, which could affect the efficacy of immunotherapy, it was investigated if this immune response is preserved against rechallenge of long-term survivors with the same cell line. Mice were considered long-term survivors if no tumor was detected 80 days after surgical resection of MCA205 primary tumors. Five long-term survivors from each treatment group were further re-challenged with 2.5×10^5 MCA205 cells injected subcutaneously into the flank region. Cells were prepared in 50 μl of PBS. Naïve mice were implanted in parallel as controls.

murine MC/9 MCs = test: MC/9 - NIH3T3 transwell co-culture, mast cell degranulation by β-hexosaminidase release; type: cell-based
Description: (§2) Given that both MCs and fibroblasts are present in the TME, the consequences of MC activation on myofibroblasts was explored using a co-culture assay in which murine MC/9 MCs and NIH3T3 myofibroblasts were separated by a transwell chamber with micropores that only allowed chemical communication (FIG. 13A). In this system, degranulation efficiency was determined by measuring the concentration of β-hexosaminidase (β-hex) in the supernatant. MC degranulation was induced through exposure to compound 48/80 (C48/80), which binds to the MRGPRB2 receptor (the orthologue of the human G-protein-coupled receptor MRGPRX2). […] Co-cultures treated with a vehicle control and Triton X-100 were used as internal assay control to evaluate background and maximum β-hex release, respectively. Transforming growth factor (TGF)-β1 was used as a fibroblast activator due to its capacity to induce a myofibroblast phenotype of the NIH3T3 cells. MC/9 cells were cultivated with NIH3T3 cells for 24 hours and then treated with either ketotifen or TGFβ for additional 24 hours in low serum medium, followed by a 30 minute sensitization with C48/80.

NIH3T3 cells = test: Myofibroblast differentiation in co-culture, αSMA and collagen I immunofluorescence; type: cell-based, murine; conditions: co-culture with TGFβ and activated MCs
Description: as §2
To further explore the MC-fibroblast interaction, the differentiation process of NIH3T3 cells in the co-culture system was monitored by assaying levels of αSMA and collagen I, which are two markers of the myofibroblast phenotype, by immunofluorescence staining (FIG. 13C, FIG. 13D, and FIG. 13E).

MCA205 tumors [4] = test: Vessel normalization, NG2/CD31 pericyte coverage and open lumen fraction; type: in vivo, mouse
Description: To assess whether MC inhibition could normalize the structure of tumor blood vessels, which can further improve perfusion, the effect of ketotifen on vascular permeability was assessed. […] Instead, an upregulation of IFN-γ transcription levels in MCA205 tumors following 10 mg/kg ketotifen treatment was observed (FIG. 1D). IFNγ is an angiostatic protein whose concentration in the TME has been related to vessel normalization and reduced vessel leakiness.

K7M2wt tumors [5] = test: Atomic force microscopy (AFM) elastic modulus of tumor samples ex vivo; type: in vivo, mouse; conditions: ketotifen-treated K7M2wt tumors, microscopic scale
Description: Following the confirmation of the presence of MCs in human sarcoma samples and the in vitro characterization of the MC-fibroblast interaction, it was assessed whether inhibition of MC degranulation would reduce fibrosis in murine sarcoma models. The impact of MC degranulation by treating MCA205 fibrosarcoma and K7M2wt osteosarcoma tumors with ketotifen was assessed. Ketotifen was administered in four different doses (1, 5, 10, and 25 mg/kg), once a day by i.p. injection for a period of 8 days (as shown in FIG. 4A). […] The effect of ketotifen on tumor stiffness in vivo was monitored using shear wave elastography (SWE). SWE measurements were performed before, after 3 days (for MCA205) or 4 days (for K7M2wt) of ketotifen treatment and upon study completion. […] The pertinent reduction in tumor stiffness was further validated ex vivo at the microscopic tissue scale using atomic force microscopy (AFM) of tumor samples. […] In FIG. 19B, the left peak of lower elastic modulus corresponds to compliant cancer cells, while the tail of higher elastic modulus (dashed rectangles) represents the contribution of the stiffer matrix components, mainly collagen. Data are presented as mean±SE. Statistical analyses were performed by comparing means between two independent groups using the ordinary one-way ANOVA test.

MCA205 tumors [6] = test: Mast cell tryptase staining of tumors; type: in vivo, mouse; conditions: 10 mg/kg ketotifen
From the text: (§3) Finally, to confirm the effect of ketotifen on MC inactivation, ketotifen-treated tumors were stained for tryptase, a serine protease unique to MCs with a role in myofibroblast proliferation and collagen synthesis.

K7M2wt tumors [7] = test: Mast cell tryptase staining of tumors; type: in vivo, mouse; conditions: 10 mg/kg ketotifen
From the text: as §3

With `CN1CCC(=C2c3ccccc3CC(=O)c3sccc32)CC1` [ketotifen] the “pimonidazole positive fraction (hypoxia)” value (K7M2wt tumors [1]) was “significantly reduced; also recorded: alleviated hypoxia”, the “tumor opening after cutting (solid stress)” value (MCA205 tumors [2]) was “smaller opening” and the “pimonidazole positive fraction (hypoxia)” value (MCA205 tumors [3]; 1 mg/kg, 5 mg/kg and 25 mg/kg ketotifen) was “prominent”. The “pimonidazole positive fraction (hypoxia)” value (MCA205 tumors [3]; 10 mg/kg ketotifen, MCA205) was “significantly reduced; also recorded: alleviated hypoxia”, the “tumor development after re-challenge (mice out of five long-term survivors per group)” value (MCA205 cells) was “developed progressively growing tumors” and the “MC degranulation (β-hex release)” value (murine MC/9 MCs; 24 hours treatment, then 30 minute sensitization with C48/80) was “inhibits degranulation in a dose-dependent manner”. For the same molecule, the “reduction in β-hex release compared to C48/80 treatment” value (murine MC/9 MCs; ketotifen 100 μg/ml) was “more than 50%”, the “myofibroblast differentiation (αSMA and collagen I protein expression)” value (NIH3T3 cells) was “impaired this myofibroblast differentiation” and the “fraction of vessels with open lumen” value (MCA205 tumors [4]; MCA205 tumors, CD31 image analysis) was “increase the fraction of vessels with open lumen”. The “pericyte coverage of the tumor vasculature (NG2/CD31 colocalization)” value (MCA205 tumors [4]; ketotifen 5, 10 and 25 mg/kg compared to the lowest dose and untreated control) was “increase”, the “average value of elastic modulus by AFM” value (K7M2wt tumors [5]) was “reduction” and the tryptase levels (MCA205 tumors [6]) was “reduced”. The tryptase levels (K7M2wt tumors [7]) was “reduced”.
